Measurements as given in publication PMC8843100, “Development of newly synthesised quinazolinone-based CDK2 inhibitors with potent efficacy against melanoma” (Journal of Enzyme Inhibition and Medicinal Chemistry, 2022).

Columns and labels:
786-0 = test: NCI-60 single dose screen, sulforhodamine B; type: cell-based, human; details: Renal cancer 786-0; single dose 10^−5 M
In short: (§1)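 Cells are plated and incubated one day, at which point some plates are processed for time-zero density. The rest receive compound at 10 µM and incubate another 2 days before fixation and SRB staining. Inhibition is computed against drug-free cells and the time-zero reading, so cell kill can also be seen.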

A498 = test: NCI-60 single dose screen, sulforhodamine B; type: cell-based, human; details: Renal cancer A498; single dose 10^−5 M
In short: as §1

A549/ATCC = test: NCI-60 single dose screen, sulforhodamine B; type: cell-based, human; details: Non-small cell lung cancer A549/ATCC; single dose 10^−5 M
In short: as §1

ACHN = test: NCI-60 single dose screen, sulforhodamine B; type: cell-based, human; details: Renal cancer ACHN; single dose 10^−5 M
In short: as §1

CAKI-1 = test: NCI-60 single dose screen, sulforhodamine B; type: cell-based, human; details: Renal cancer CAKI-1; single dose 10^−5 M
In short: as §1

CCRF-CEM = test: NCI-60 single dose screen, sulforhodamine B; type: cell-based, human; details: Leukaemia CCRF-CEM; single dose 10^−5 M
In short: as §1

COLO 205 = test: NCI-60 single dose screen, sulforhodamine B; type: cell-based, human; details: Colon cancer COLO 205; single dose 10^−5 M
In short: as §1

DU-145 = test: NCI-60 single dose screen, sulforhodamine B; type: cell-based, human; details: Prostate cancer DU-145; single dose 10^−5 M
In short: as §1

EKVX = test: NCI-60 single dose screen, sulforhodamine B; type: cell-based, human; details: Non-small cell lung cancer EKVX; single dose 10^−5 M
In short: as §1

K-562 = test: NCI-60 single dose screen, sulforhodamine B; type: cell-based, human; details: Leukaemia K-562; single dose 10^−5 M
In short: as §1

LOX IMVI = test: NCI-60 single dose screen, sulforhodamine B; type: cell-based, human; details: Melanoma LOX IMVI; single dose 10^−5 M
In short: as §1

M14 = test: NCI-60 single dose screen, sulforhodamine B; type: cell-based, human; details: Melanoma M14; single dose 10^−5 M
In short: as §1

NCI-H226 = test: NCI-60 single dose screen, sulforhodamine B; type: cell-based, human; details: Non-small cell lung cancer NCI-H226; single dose 10^−5 M
In short: as §1

NCI-H23 = test: NCI-60 single dose screen, sulforhodamine B; type: cell-based, human; details: Non-small cell lung cancer NCI-H23; single dose 10^−5 M
In short: as §1

OVCAR-4 = test: NCI-60 single dose screen, sulforhodamine B; type: cell-based, human; details: Ovarian cancer OVCAR-4; single dose 10^−5 M
In short: as §1

OVCAR-5 = test: NCI-60 single dose screen, sulforhodamine B; type: cell-based, human; details: Ovarian cancer OVCAR-5; single dose 10^−5 M
In short: as §1

SF-539 = test: NCI-60 single dose screen, sulforhodamine B; type: cell-based, human; details: CNS cancer SF-539; single dose 10^−5 M
In short: as §1

SK-MEL-28 = test: NCI-60 single dose screen, sulforhodamine B; type: cell-based, human; details: Melanoma SK-MEL-28; single dose 10^−5 M
In short: as §1

SK-MEL-2 = test: NCI-60 single dose screen, sulforhodamine B; type: cell-based, human; details: Melanoma SK-MEL-2; single dose 10^−5 M
In short: as §1

SK-MEL-5 = test: NCI-60 single dose screen, sulforhodamine B; type: cell-based, human; details: Melanoma SK-MEL-5; single dose 10^−5 M
In short: as §1

SW-620 = test: NCI-60 single dose screen, sulforhodamine B; type: cell-based, human; details: Colon cancer SW-620; single dose 10^−5 M
In short: as §1

TK-10 = test: NCI-60 single dose screen, sulforhodamine B; type: cell-based, human; details: Renal cancer TK-10; single dose 10^−5 M
In short: as §1

UACC-257 = test: NCI-60 single dose screen, sulforhodamine B; type: cell-based, human; details: Melanoma UACC-257; single dose 10^−5 M
In short: as §1

UO-31 = test: NCI-60 single dose screen, sulforhodamine B; type: cell-based, human; details: Renal cancer UO-31; single dose 10^−5 M
In short: as §1

Compound | GI% at 10^−5 M (786-0) | GI% at 10^−5 M (A498) | GI% at 10^−5 M (A549/ATCC) | GI% at 10^−5 M (ACHN) | GI% at 10^−5 M (CAKI-1) | GI% at 10^−5 M (CCRF-CEM) | GI% at 10^−5 M (COLO 205) | GI% at 10^−5 M (DU-145) | GI% at 10^−5 M (EKVX) | GI% at 10^−5 M (K-562) | GI% at 10^−5 M (LOX IMVI) | GI% at 10^−5 M (M14) | GI% at 10^−5 M (NCI-H226) | GI% at 10^−5 M (NCI-H23) | GI% at 10^−5 M (OVCAR-4) | GI% at 10^−5 M (OVCAR-5) | GI% at 10^−5 M (SF-539) | GI% at 10^−5 M (SK-MEL-28) | GI% at 10^−5 M (SK-MEL-2) | GI% at 10^−5 M (SK-MEL-5) | also measured
O=C(CNn1c(COc2ccccc2)nc2ccccc2c1=O)Nc1ccccc1 [Compound 4a, 2-((4-oxo-2-(phenoxymethyl)quinazolin-3(4H)-yl)amino)-N-phenylacetamide] | – (– means GI < 10%) | – (– means GI < 10%) | – (– means GI < 10%) | – (– means GI < 10%) | 12.78% | – (– means GI < 10%) | – (– means GI < 10%) | – (– means GI < 10%) | 14.38% | – (– means GI < 10%) | – (– means GI < 10%) | – (– means GI < 10%) | – (– means GI < 10%) | 16.55% | – (– means GI < 10%) | – (– means GI < 10%) | – (– means GI < 10%) | – (– means GI < 10%) | – (– means GI < 10%) | – (– means GI < 10%) | GI% at 10^−5 M (SW-620): – (– means GI < 10%); GI% at 10^−5 M (TK-10): – (– means GI < 10%); GI% at 10^−5 M (UACC-257): – (– means GI < 10%); GI% at 10^−5 M (UO-31): 21.57%; melting point: 135 to 137 °C
COc1ccc(NC(=O)CNn2c(COc3ccccc3)nc3ccccc3c2=O)cc1 [Compound 4b, N-(4-methoxyphenyl)-2-((4-oxo-2-(phenoxymethyl)quinazolin-3(4H)-yl)amino)acetamide] | – (– means GI < 10%) | 34.65% | – (– means GI < 10%) | – (– means GI < 10%) | 21.63% | – (– means GI < 10%) | – (– means GI < 10%) | – (– means GI < 10%) | 10.17% | – (– means GI < 10%) | – (– means GI < 10%) | – (– means GI < 10%) | – (– means GI < 10%) | – (– means GI < 10%) | – (– means GI < 10%) | – (– means GI < 10%) | – (– means GI < 10%) | – (– means GI < 10%) | – (– means GI < 10%) | – (– means GI < 10%) | GI% at 10^−5 M (SW-620): – (– means GI < 10%); GI% at 10^−5 M (TK-10): – (– means GI < 10%); GI% at 10^−5 M (UACC-257): – (– means GI < 10%); GI% at 10^−5 M (UO-31): 15.77%; melting point: 146 to 148 °C
O=C(CNn1c(COc2ccccc2)nc2ccccc2c1=O)Nc1ccc(Cl)cc1 [Compound 4c, N-(4-chlorophenyl)-2-((4-oxo-2-(phenoxymethyl)quinazolin-3(4H)-yl)amino)acetamide] | – (– means GI < 10%) | 16.35% | – (– means GI < 10%) | – (– means GI < 10%) | 23.58% | – (– means GI < 10%) | – (– means GI < 10%) | – (– means GI < 10%) | 19.01% | 10.43% | – (– means GI < 10%) | – (– means GI < 10%) | 11.13% | – (– means GI < 10%) | 11.8% | – (– means GI < 10%) | – (– means GI < 10%) | – (– means GI < 10%) | – (– means GI < 10%) | – (– means GI < 10%) | GI% at 10^−5 M (SW-620): – (– means GI < 10%); GI% at 10^−5 M (TK-10): – (– means GI < 10%); GI% at 10^−5 M (UACC-257): – (– means GI < 10%); melting point: 165 to 167 °C
O=c1c2ccccc2nc(COc2ccccc2)n1NS(=O)(=O)c1ccccc1 [Compound 5a, N-(4-oxo-2-(phenoxymethyl)quinazolin-3(4H)-yl)benzenesulfonamide] | – (– means GI < 10%) | – (– means GI < 10%) | – (– means GI < 10%) | 11.23% | 15.07% | – (– means GI < 10%) | – (– means GI < 10%) | – (– means GI < 10%) | 15.21% | – (– means GI < 10%) | – (– means GI < 10%) | – (– means GI < 10%) | – (– means GI < 10%) | 11.73% | – (– means GI < 10%) | – (– means GI < 10%) | – (– means GI < 10%) | – (– means GI < 10%) | – (– means GI < 10%) | – (– means GI < 10%) | GI% at 10^−5 M (SW-620): – (– means GI < 10%); GI% at 10^−5 M (TK-10): – (– means GI < 10%); GI% at 10^−5 M (UACC-257): – (– means GI < 10%); GI% at 10^−5 M (UO-31): 18.13%; melting point: 114 to 116 °C
Cc1ccc(S(=O)(=O)Nn2c(COc3ccccc3)nc3ccccc3c2=O)cc1 [Compound 5b, 4-methyl-N-(4-oxo-2-(phenoxymethyl)quinazolin-3(4H)-yl)benzenesulfonamide] | – (– means GI < 10%) | – (– means GI < 10%) | – (– means GI < 10%) | 15% | – (– means GI < 10%) | – (– means GI < 10%) | – (– means GI < 10%) | 15.73% | 13.18% | – (– means GI < 10%) | – (– means GI < 10%) | – (– means GI < 10%) | – (– means GI < 10%) | 11.47% | – (– means GI < 10%) | – (– means GI < 10%) | – (– means GI < 10%) | – (– means GI < 10%) | – (– means GI < 10%) | – (– means GI < 10%) | GI% at 10^−5 M (SW-620): – (– means GI < 10%); GI% at 10^−5 M (TK-10): 23.64%; GI% at 10^−5 M (UACC-257): – (– means GI < 10%); GI% at 10^−5 M (UO-31): 10.74%; melting point: 140 to 142 °C
